Assays:
[1] = test system: A. baumannii ATCC 17978 native ADC KO, OXA-24 pWH1266; assay: Antimicrobial susceptibility testing, broth microdilution; assay type: cell-based; settings: BLI none; ATCC 17978 ADC KO, OXA-24 pWH1266
Method: (§1) The inhibitory effects of both compounds were tested against ADC-33 and OXA-24/-40 in A. baumannii, their native host. ATCC 17978, with its intrinsic chromosomal ADC knocked out (intrinsic OXA still present), was used in these experiments. In this isolate, the ADC MICs were not lowered by the inhibitors as much as they were against the E. coli background (Table 4).
(§2) pWH1266 is a vector that replicates in A. baumannii, and the […] pWH1266 construct was generated as follows. The TEM gene was removed using inverse PCR, and an Xba1 site was engineered into the vector. blaOXA-24/40 and its upstream XerC/XerD were amplified from strain NM55. The amplified gene was cloned into the Xba1 site of the altered pWH1266 vector. The construct was confirmed using PCR and sequencing. Both blaADC-33 pQF1266 and […] pWH1266 were then expressed in A. baumannii ATCC 17978 that had the intrinsic chromosomal ADC gene knocked out.
(§3) The chromosomal blaADC-51 gene in ATCC 17978 was deleted and replaced with an apramycin resistance cassette using the recombineering method described by Tucker et al.. Primers used for this deletion were: Del AmpC-apra.For: […]; and Del AmpC-apra.Rev: […]. The correct deletion mutant was confirmed using PCR and sequencing.
(§4) Testing of susceptibility to standard antibiotics was performed with broth microdilution according to CLSI guidelines. MICs for CAZ, CTX, FEP, and IMI were determined using cation-adjusted Mueller–Hinton broth according to CLSI methods, and CR167 or 6b was used at a fixed concentration of 10 mg/L. All MICs were interpreted according to the 2022 Clinical and Laboratory Standards Institute (CLSI) guidelines.

[2] = test system: A. baumannii ATCC 17978 native ADC KO, ADC-33 pQF1266; assay: as above; assay type: cell-based; settings: BLI none; ATCC 17978 ADC KO, ADC-33 pQF1266
Method: as §1
Plasmid pBCSK- containing the blaADC-33 gene was digested with PvuII, which released the blaADC-33 gene, along with the lac promoter, which drives expression. This PvuII fragment was cloned into the SmaI site of the pQF1266 plasmid.
as §2, §3, §4

[3] = test system: E. coli DH10B, ADC-7 in pBCSK-; assay: as above; assay type: cell-based; settings: BLI none; E. coli DH10B ADC-7 pBCSK-
Method: (§5) Based upon the inhibitor kinetics (Ki determinations), CR167 and the sulfonamidoboronic acid 6b were tested against E. coli strains expressing ADC-7 and ADC-33 cloned into pBCSK- (DH10B) (Table 3).
(§6) blaADC-7 pBCSK- and blaADC-33 pBCSK- were cloned and expressed in E. coli DH10B cells as previously described.
as §4

[4] = test system: E. coli DH10B, ADC-33 in pBCSK-; assay: as above; assay type: cell-based; settings: BLI none; E. coli DH10B ADC-33 pBCSK-
Method: as §5, §6, §4

[5] = test system: OXA-24/40; set-up: method as in PMID 20299220; settings: cited from earlier work
[6] = molecular target: T1, OXA-24/40 (Acinetobacter baumannii, UniProt Q8RLA6); assay: Ki determination, competition assay with nitrocefin (NCF) as substrate; assay type: biochemical; settings: corrected for NCF affinity; 5 min pre-incubation; pH 7.4, 25 mM NaHCO3; read-out: Ki OXA-24/40
T1 construct: made in house
T1 sequence (Q8RLA6 22-275): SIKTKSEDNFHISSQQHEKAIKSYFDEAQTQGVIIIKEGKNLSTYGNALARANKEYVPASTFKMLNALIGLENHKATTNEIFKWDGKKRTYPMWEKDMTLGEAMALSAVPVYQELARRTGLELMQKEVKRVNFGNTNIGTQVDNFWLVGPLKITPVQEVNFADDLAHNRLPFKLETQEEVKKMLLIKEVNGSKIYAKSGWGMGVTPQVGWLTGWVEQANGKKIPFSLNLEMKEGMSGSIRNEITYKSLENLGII
Method: (§7) The affinity of CR167 for the two different β-lactamases was measured in competition assays using nitrocefin (NCF) as the indicator substrate (Table 1).
(§8) The binding affinity of each of the compounds 6a–e with ADC-33 and with OXA-24/40 was determined after 5 min pre-incubation of boronic acid and the enzyme, using competition assays with nitrocefin (NCF) as the substrate. […] These compounds differ in three structural characteristics: stereochemistry, the presence of the m-carboxylate on the aromatic ring, and the small chain linked to the chiral center. […] Finally, the smaller the steric hindrance is at the R1 position, the higher the affinity is.
(§9) Ki values were determined by using nitrocefin as a reporter substrate and treating the compounds as competitive inhibitors. Steady-state kinetic parameters were determined by combining pure enzyme with nitrocefin in 50 mM NaH2PO4; 25 mM NaHCO3, pH 7.4 (for OXA-24/40); or 50 mM NaH2PO4, pH 7.4 (for ADC-33), at room temperature. Changes in absorbance were measured on a Cary 60 UV−Vis spectrophotometer (Agilent Technologies) and converted to velocity using the change-in-extinction coefficient specific to nitrocefin (ε = 17,400 M^−1·cm^−1 at 482 nm). Initial velocities were fit to the Michaelis–Menten equation, yielding kcat and Km values. Next, the enzyme was challenged with a constant concentration of nitrocefin and increasing amounts of inhibitor. IC50 values were used to calculate Ki values using the Cheng–Prusoff equation as previously described. Specifically, the measurements of the initial velocities were performed with the addition of 100 µM NCF after a 5 min pre-incubation of the enzyme (2 nM) with increasing concentration of the inhibitor [37]. To determine the average velocities (v0), data from three experiments were fit to Equation (1): (1) v0=vu −{vu[I]/IC 50+[I]} where vu represents the NCF uninhibited velocity and IC50 represents the inhibitor concentration that results in a 50% reduction in vu. The Ki value was corrected for the NCF affinity (Km values for both OXA-24/40 and ADC-33) with the Cheng–Prusoff equation (Equation (2)): (2) Ki=IC50/(1+[NCF]/KmNCF)

[7] = molecular target: ADC-33 (Acinetobacter baumannii, UniProt A7Y407); assay: as above; assay type: biochemical; settings: for Ki: corrected for NCF affinity, 5 min pre-incubation, pH 7.4
Method: as §7, §8, §9

[8] = test system: clinical A. baumannii isolate PR323 (OXA-24, OXA-65, ADC-218); assay: Antimicrobial susceptibility testing, clinical isolate, broth microdilution; assay type: cell-based; settings: BLI none; PR323
Method: (§10) Clinical A. baumannii isolates containing ADC-33 or OXA-24/-40 in combination with various other well-defined β-lactamases were also tested against CR167 and 6b (Table 5).
(§11) The clinical A. baumannii isolates used to test the β-lactamase inhibitors were selected from a previously well-characterized collection in our lab. They were chosen as they had either ADC-33 and/or OXA-24 in combination with other known β-lactamases (for specific combinations, see Table 5).
as §4

[9] = test system: clinical A. baumannii isolate PR378 (OXA-24, OXA-65, TEM-1); assay: as above; assay type: cell-based; settings: BLI none; PR378
Method: as §10, §11, §4

[10] = test system: clinical A. baumannii isolate PR474 (OXA-23, OXA-24, OXA-65, ADC-218); assay: as above; assay type: cell-based; settings: BLI none; PR474
Method: as §10, §11, §4

[11] = test system: clinical A. baumannii isolate PR408 (OXA-24, OXA-71, ADC-212); assay: as above; assay type: cell-based; settings: BLI none; PR408
Method: as §10, §11, §4

[12] = test system: clinical A. baumannii isolate PR328 (OXA-23, OXA-82, ADC-33); assay: as above; assay type: cell-based; settings: BLI none; PR328
Method: as §10, §11, §4

[13] = test system: clinical A. baumannii isolate PR462 (OXA-24, OXA-65, ADC-214); assay: as above; assay type: cell-based; settings: BLI none
Method: as §10, §11, §4

[14] = test system: clinical A. baumannii isolate PR396 (OXA-82, ADC-33); assay: as above; assay type: cell-based; settings: BLI none
Method: as §10, §11, §4

[15] = test system: E. coli DH10B pBCSK, blaADC-7; set-up: method as in PMID 29144724; settings: without inhibitor; cited from earlier work

| Structure (SMILES) | MIC, antibiotic alone [1] | MIC, antibiotic alone [2] | MIC, antibiotic alone [3] | MIC, antibiotic alone [4] | Ki [6] | Ki [7] | MIC, antibiotic alone [8] | MIC, antibiotic alone [9] | MIC, antibiotic alone [10] | MIC, antibiotic alone [11] | MIC, antibiotic alone [12] | MIC, antibiotic alone [13] | MIC, antibiotic alone [14] | further results |
| --- | --- | --- | --- | --- | --- | --- | --- | --- | --- | --- | --- | --- | --- | --- |
| CO/N=C(\C(=O)N[C@@H]1C(=O)N2C(C(=O)[O-])=C(C[N+]3(C)CCCC3)CS[C@H]12)c1csc(N)n1 [FEP, cefepime, reference compound] | 32 µg/mL | 4 µg/mL | 0.5 µg/mL | 0.5 µg/mL | – | – | – | – | – | – | – | – | – | – |
| O=S(=O)(NCB(O)O)c1cc2c(Cl)ccc(Cl)c2s1 [DSABA, 4,7-dichloro-1-benzothien-2-yl-sulfonylaminomethyl boronic acid] | – | – | – | – | – | – | – | – | – | – | – | – | – | IC50 [5]: 5.6 µM |
| CC[C@@H](NS(=O)(=O)Cc1cccc(C(=O)O)c1)B(O)O [6d] | – | – | – | – | 320 ± 30 µM | 22 ± 3 µM | – | – | – | – | – | – | – | – |
| CO/N=C(\C(=O)N[C@@H]1C(=O)N2C(C(=O)O)=C(COC(C)=O)CS[C@H]12)c1csc(N)n1 [CTX, Cefotaxime, reference compound] | 16 µg/mL | 32 µg/mL | 64 µg/mL | 128 µg/mL | – | – | 2048 µg/mL | 64 µg/mL | 1024 µg/mL | 1024 µg/mL | 256 µg/mL | 1024 µg/mL | 512 µg/mL | – |
| C[C@@H](NS(=O)(=O)Cc1ccccc1)B(O)O [6a] | – | – | – | – | 630 ± 70 µM | 3.1 ± 0.5 µM | – | – | – | – | – | – | – | fold less potent than 6b, ADC-33 ([7]; ratio of Ki, 6a vs 6b): 4 fold |
| C[C@@H](O)[C@H]1C(=O)N2C(C(=O)O)=C(SCCN=CN)C[C@H]12 [IMI, reference compound] | – | – | – | – | – | – | 128 µg/mL | 256 µg/mL | 128 µg/mL | 128 µg/mL | 128 µg/mL | 64 µg/mL | 64 µg/mL | – |
| CC(C)(O/N=C(\C(=O)N[C@@H]1C(=O)N2C(C(=O)[O-])=C(C[n+]3ccccc3)CS[C@H]12)c1csc(N)n1)C(=O)O [CAZ, ceftazidime, reference compound] | 8 µg/mL | 128 µg/mL | 64 µg/mL | 2048 µg/mL | – | – | 4096 µg/mL | 64 µg/mL | 4096 µg/mL | 1024 µg/mL | 2048 µg/mL | 256 µg/mL | 2048 µg/mL | MIC for CAZ alone [15]: 64 µg/mL |
| CC[C@H](NS(=O)(=O)Cc1cccc(C(=O)O)c1)B(O)O [6e] | – | – | – | – | > 1000 µM | 3.7 ± 0.6 µM | – | – | – | – | – | – | – | – |
| CC[C@@H](NS(=O)(=O)Cc1ccccc1)B(O)O [6c] | – | – | – | – | > 1000 µM | 193 ± 23 µM | – | – | – | – | – | – | – | – |
